From patent US12071434B2, “Heterocyclic compound” (Takeda Pharmaceutical Company Limited, priority 2018, dated 2024)

What follows are compounds tested against T1, human orexin type 2 receptor (Homo sapiens, UniProt O43614) (assay: Measurement of orexin type 2 receptor agonist activity (calcium fluorescence, Fluo-4 AM, FDSS) in CHO cells forcibly expressing human OX2 receptor). Conditions: test compound 3 μM, DMSO = 0%, orexin A (human) 10 nM = 100%.
T1 construct: expressed in transfected cells
T1 sequence (O43614 1-444): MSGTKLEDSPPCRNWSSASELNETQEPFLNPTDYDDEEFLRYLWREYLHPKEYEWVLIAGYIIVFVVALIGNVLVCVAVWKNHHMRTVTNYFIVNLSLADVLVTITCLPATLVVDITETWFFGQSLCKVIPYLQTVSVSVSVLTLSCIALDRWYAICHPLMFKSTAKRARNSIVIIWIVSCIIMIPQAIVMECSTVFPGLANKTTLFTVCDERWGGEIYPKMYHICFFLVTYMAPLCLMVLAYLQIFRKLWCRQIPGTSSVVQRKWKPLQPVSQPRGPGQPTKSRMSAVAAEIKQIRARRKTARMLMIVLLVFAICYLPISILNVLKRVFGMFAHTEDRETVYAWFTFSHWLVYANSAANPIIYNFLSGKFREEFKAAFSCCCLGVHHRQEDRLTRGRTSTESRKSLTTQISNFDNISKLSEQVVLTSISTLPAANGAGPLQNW
Format: cell-based
Description: To obtain a cell clone stably expressing human orexin type 2 receptor, human orexin type 2 receptor cDNA was inserted into pcDNA3.1(+) plasmid vector (Invitrogen), and a plasmid DNA for expression of human orexin type 2 receptor (pcDNA3.1(+)/hOX2R) was cloned. The plasmid DNA was introduced into CHO-dhfr cell by an electroporation method, and human orexin type 2 receptor expressing clone cells were obtained by limiting dilution method by using G418 drug resistance as a selection marker.
CHO cells forcibly expressing human OX2 receptor were seeded in each well of 384 well black transparent bottom plate (BD Falcon) at 7,500 cells/well, and cultured for one day in a 5% CO2 incubator at 37° C. After removal of the medium in the cell plate, assay buffer A containing a calcium indicator (HBSS (Thermo Fisher Scientific), 20 mM HEPES (Thermo Fisher Scientific), 0.1% BSA (Sigma-Aldrich), 2.5 μg/mL Fluo-4 AM (DOJINDO Chemical), 0.08% Pluronic F127 (DOJINDO Chemical), 1.25 mM probenecid (DOJINDO Chemical)) was added at 30 μL/well. The plate was stood for 30 min in a 5% CO2 incubator at 37° C., and further stood at room temperature for 30 min. A test compound prepared by diluting with assay buffer B (HBSS, 20 mM HEPES, 0.1% BSA) was added at 10 μL/well, and the fluorescence value was measured by FDSSpCELL (Hamamatsu Photonics K.K.) every one sec for 1 min, and thereafter every two sec for 1 min 40 sec. The activity (%) of the test compound was calculated assuming that variation in the fluorescence value when DMSO was added instead of the test compound was 0%, and variation in the fluorescence value when orexin A (human) (PEPTIDE INSTITUTE, INC.) was added at the final concentration of 10 nM was 100%.

Row | 0X2R agonist activity (3 μM, %) [%] | Structure (SMILES)
1 | 85 | CC(C)n1cnc2c(c1=O)[C@@H](Cc1cccc(-c3cc(F)cc(F)c3)c1)[C@@H](NS(=O)(=O)C1CC1)CC2 [Example 175, N-[(5R,6S)-5-[(3′,5′-difluoro[1,1′-biphenyl]-3-yl)methyl]-4-oxo-3-(propan-2-yl)-3,4,5,6,7,8-hexahydroquinazolin-6-yl]cyclopropanesulfonamide]
2 | 101 | CC(C)n1cnc2c(c1=O)[C@@H](Cc1cccc(-c3ccccc3F)c1)[C@@H](NS(=O)(=O)C1CC1)CC2 [Example 192, N-[(5R,6S)-5-[(2′-fluoro[1,1′-biphenyl]-3-yl)methyl]-4-oxo-3-(propan-2-yl)-3,4,5,6,7,8-hexahydroquinazolin-6-yl]cyclopropanesulfonamide]
3 | 92 | COC1(C(=O)N[C@H]2CCc3ncn(C(C)C)c(=O)c3[C@H]2Cc2cccc(-c3ccccc3)c2)CC1 (racemic) [Example 63, rac-N-[(5R,6S)-5-[([1,1′-biphenyl]-3-yl)methyl]-4-oxo-3-(propan-2-yl)-3,4,5,6,7,8-hexahydroquinazolin-6-yl]-1-methoxycyclopropane-1-carboxamide]
4 | 87 | CCS(=O)(=O)N[C@H]1CCc2ncn(C(C)C)c(=O)c2[C@H]1Cc1cccc(-c2cccc(F)c2)c1F [Example 170, N-[(5R,6S)-5-[(2,3′-difluoro[1,1′-biphenyl]-3-yl)methyl]-4-oxo-3-(propan-2-yl)-3,4,5,6,7,8-hexahydroquinazolin-6-yl]ethanesulfonamide]
5 | 79 | CS(=O)(=O)N[C@H]1CCc2ncn(CC3CC3)c(=O)c2[C@H]1Cc1cccc(-c2ccccc2)c1 (racemic) [Example 103, rac-N-[(5R,6S)-5-[([1,1′-biphenyl]-3-yl)methyl]-3-(cyclopropylmethyl)-4-oxo-3,4,5,6,7,8-hexahydroquinazolin-6-yl]methanesulfonamide]
6 | 93 | CC(C)n1cnc2c(c1=O)[C@@H](Cc1csc(-c3ccccc3F)n1)[C@@H](NS(=O)(=O)C1(F)CC1)CC2 (relative stereo) [Example 156, rel-1-fluoro-N-[(5R,6S)-5-{[2-(2-fluorophenyl)-1,3-thiazol-4-yl]methyl}-4-oxo-3-(propan-2-yl)-3,4,5,6,7,8-hexahydroquinazolin-6-yl]cyclopropane-1-sulfonamide]
7 | 105 | CC(C)n1cnc2c(c1=O)[C@@H](Cc1cccc(-c3ccccc3F)c1F)[C@@H](NS(C)(=O)=O)CC2 (relative stereo) [Example 149, rel-N-[(5R,6S)-5-[(2,2′-difluoro[1,1′-biphenyl]-3-yl)methyl]-4-oxo-3-(propan-2-yl)-3,4,5,6,7,8-hexahydroquinazolin-6-yl]methanesulfonamide]

The next lines start with the compound.

Row | Structure (SMILES) | 0X2R agonist activity (3 μM, %) [%]
8 | Cc1n[nH]c(=O)c2c1CC[C@H](NS(C)(=O)=O)[C@@H]2Cc1cccc(-c2ccccc2)c1 (racemic) [Example 138, rac-N-{(5R,6S)-5-[([1,1′-biphenyl]-3-yl)methyl]-1-methyl-4-oxo-3,4,5,6,7,8-hexahydrophthalazin-6-yl}methanesulfonamide] | 44
9 | CCn1ccc2c(c1=O)[C@@H](Cc1cccc(-c3ccccc3)c1F)[C@@H](NS(C)(=O)=O)CC2=O (racemic) [Example 163, rac-N-{(7S,8R)-2-ethyl-8-[(2-fluoro[1,1′-biphenyl]-3-yl)methyl]-1,5-dioxo-1,2,5,6,7,8-hexahydroisoquinolin-7-yl}methanesulfonamide] | 94
10 | CS(=O)(=O)N[C@H]1CCc2cccc(=O)n2[C@H]1Cc1cccc(-c2ccccc2)c1 (racemic) [Example 1, rac-N-{(3S,4S)-4-[([1,1′-biphenyl]-3-yl)methyl]-6-oxo-1,3,4,6-tetrahydro-2H-quinolizin-3-yl}methanesulfonamide] | 79
11 | CCc1ccc2n(c1=O)C(Cc1cccc(-c3cccc(F)c3)c1F)C(NC(=O)C(=O)N(C)C)CC2 (racemic) [Example 39, rac-N~2~-{(3S,4S)-4-[2,3′-difluoro[1,1′-biphenyl]-3-yl)methyl]-7-ethyl-6-oxo-1,3,4,6-tetrahydro-2H-quinolizin-3-yl}-N~1~,N~1~-dimethylethanediamide] | 89
12 | CCc1ccc2n(c1=O)[C@@H](Cc1cccc(-c3cccc(F)c3)c1F)[C@@H](NC(=O)C(=O)N(C)C)CC2 (relative stereo) [Example 43, rel-N~2~-{(3S,4S)-4-[(2,3′-difluoro[1,1′-biphenyl]-3-yl)methyl]-7-ethyl-6-oxo-1,3,4,6-tetrahydro-2H-quinolizin-3-yl}-N~1~,N~1~-dimethylethanediamide] | 90
13 | [2H]C([2H])([2H])C([2H])([2H])n1ccc2c(c1=O)C(Cc1cccc(-c3cccc(F)c3F)c1)C(NS(C)(=O)=O)CC2 (racemic) [Example 147, rac-N-{(7S,8R)-8-[(2′,3′-difluoro[1,1′-biphenyl]-3-yl)methyl]-2-(~2~H_5_)ethyl-1-oxo-1,2,5,6,7,8-hexahydroisoquinolin-7-yl}methanesulfonamide] | 100
14 | CCn1cc2n(c1=O)[C@@H](Cc1cccc(-c3ccccc3)c1F)[C@@H](NS(C)(=O)=O)CC2 (racemic) [Example 204, rac-N-{(5S,6S)-2-ethyl-5-[(2-fluoro[1,1′-biphenyl]-3-yl)methyl]-3-oxo-2,3,5,6,7,8-hexahydroimidazo[1,5-a]pyridin-6-yl}methanesulfonamide] | 91
15 | Cc1cc(F)c2n(c1=O)[C@@H](Cc1cccc(-c3ccccc3)c1)[C@@H](NS(C)(=O)=O)CC2 (racemic) [Example 21, rac-N-{(3S,4S)-4-[([1,1′-biphenyl]-3-yl)methyl]-9-fluoro-7-methyl-6-oxo-1,3,4,6-tetrahydro-2H-quinolizin-3-yl}methanesulfonamide] | 101
16 | CCc1ccc(C[C@H]2[C@@H](NS(C)(=O)=O)CCc3ccc(C)c(=O)n32)cc1 (racemic) [Example 216, rac-N-{(3S,4S)-4-[(4-ethylphenyl)methyl]-7-methyl-6-oxo-1,3,4,6-tetrahydro-2H-quinolizin-3-yl}methanesulfonamide] | 76
17 | CCn1ccc2c(c1=O)[C@@H](Cc1cccc(-c3ccccc3)c1F)[C@@H](NS(C)(=O)=O)C[C@@H]2F (racemic) [Example 167, rac-N-{(5S,7S,8R)-2-ethyl-5-fluoro-8-[(2-fluoro[1,1′-biphenyl]-3-yl)methyl]-1-oxo-1,2,5,6,7,8-hexahydroisoquinolin-7-yl}methanesulfonamide] | 93
18 | CN(C)c1ccc2n(c1=O)[C@@H](Cc1cccc(-c3ccccc3)c1)[C@@H](NS(C)(=O)=O)CC2 (racemic) [Example 31, rac-N-[(3S,4S)-4-[([1,1′-biphenyl]-3-yl)methyl]-7-(dimethylamino)-6-oxo-1,3,4,6-tetrahydro-2H-quinolizin-3-yl]methanesulfonamide] | 100
19 | CCS(=O)(=O)NC1CCc2ccc(C)c(=O)n2C1Cc1cccc(-c2ccccc2)c1 (racemic) [Example 11, rac-N-{(3S,4S)-4-[([(1,1′-biphenyl]-3-yl)methyl]-7-methyl-6-oxo-1,3,4,6-tetrahydro-2H-quinolizin-3-yl}ethanesulfonamide] | 106
20 | Cc1nn(C)c(=O)c2c1CC[C@H](NS(C)(=O)=O)[C@@H]2Cc1cccc(-c2ccccc2)c1 (racemic) [Example 96, rac-N-{(5R,6S)-5-[([1,1′-biphenyl]-3-yl)methyl]-1,3-dimethyl-4-oxo-3,4,5,6,7,8-hexahydrophthalazin-6-yl}methanesulfonamide] | 71
21 | CC(C)n1cnc2c(c1=O)C(Cc1cccc(-c3ccccc3)c1)C(NS(C)(=O)=O)C(F)C2 (racemic) [Example 173, rac-N-[(5R,6R)-5-[([1,1′-biphenyl]-3-yl)methyl]-7-fluoro-4-oxo-3-(propan-2-yl)-3,4,5,6,7,8-hexahydroquinazolin-6-yl]methanesulfonamide] | 91
22 | Cc1cc(C)c(=O)n2c1CC[C@H](NS(C)(=O)=O)[C@@H]2Cc1cccc(-c2ccccc2)c1 (racemic) [Example 13, rac-N-{(3S,4S)-4-[([1,1′-biphenyl]-3-yl)methyl]-7,9-dimethyl-6-oxo-1,3,4,6-tetrahydro-2H-quinolizin-3-yl}methanesulfonamide] | 112
